Molecular target: T1, porcine liver COMT (Sus scrofa, UniProt Q99028)
T1 sequence (Q99028 1-186): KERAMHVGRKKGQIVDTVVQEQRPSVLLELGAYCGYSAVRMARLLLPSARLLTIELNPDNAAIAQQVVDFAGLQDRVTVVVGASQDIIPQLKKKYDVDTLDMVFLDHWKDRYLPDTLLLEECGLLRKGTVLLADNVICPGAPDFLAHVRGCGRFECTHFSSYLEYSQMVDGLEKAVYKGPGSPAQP
Assay: biochemical

| Structure (SMILES) | IC50 [µM] |
| --- | --- |
| Cc1ccc(C(=O)c2cc(O)c(O)c([N+](=O)[O-])c2)cc1 [Tolcapone, reference compound] | 0.0068 |
| Cc1c(O)c(=O)ccn1Cc1ccccc1 [Compound 2, 1-Benzyl-3-hydroxy-2-methylpyridin-4-one] | 4.55 ± 0.545 |
| Cc1ccc(Cn2ccc(=O)c(O)c2C)cc1 [Compound 10, 3-Hydroxy-2-methyl-1-(4-methylbenzyl)pyridin-4-one] | 5.76 ± 0.664 |
| Cc1c(O)c(=O)ccn1C1CCCCC1 [Compound 6, 1-Cyclohexyl-3-hydroxy-2-methylpyridin-4-one] | 12.2 ± 3.06 |
| Cc1c(O)c(=O)ccn1C1CCCC1 [Compound 7, 1-Cyclopentyl-3-hydroxy-2-methylpyridin-4-one] | 19.8 ± 5.86 |

More lines, in order of falling IC50, values ahead:

| IC50 [µM] | Structure (SMILES) |
| --- | --- |
| 18.4 ± 0.974 | Cc1c(O)c(=O)ccn1CCCc1ccccc1 [Compound 4, 3-Hydroxy-2-methyl-1-(3-phenylpropyl)pyridin-4-one] |
| 15 ± 2.1 | Cc1c(O)c(=O)ccn1CCc1ccccc1 [Compound 3, 3-Hydroxy-2-methyl-1-(2-phenylethyl)pyridin-4-one] |
| 11.2 ± 1.01 | Cc1c(O)c(=O)ccn1-c1cccc(Cl)c1 [Compound 8, 1-(3-Chlorophenyl)-3-hydroxy-2-methylpyridin-4-one] |
| 10.9 ± 1.06 | Cc1c(O)c(=O)ccn1-c1ccccc1 [Compound 1, 3-Hydroxy-2-methyl-1-phenylpyridin-4-one] |
| 9.31 ± 2.94 | Cc1c(O)c(=O)ccn1-c1ccc(Cl)cc1 [Compound 9, 1-(4-Chlorophenyl)-3-hydroxy-2-methylpyridin-4-one] |
| 9.05 ± 1.25 | Cc1c(O)c(=O)ccn1CCCCc1ccccc1 [Compound 5, 3-Hydroxy-2-methyl-1-(4-phenylbutyl)pyridin-4-one] |
